Experimental data published in paper PMC3617124 (Nature chemical biology, 2012).
One block for each compound: values may come before it.

Experiments:
[1] = target: BCL-XLΔC (Homo sapiens, UniProt Q07817); experiment: competitive FPA, BCL-XLΔC; assay type: binding; details: even at 50-μM dosing
[2] = target: MCL-1ΔNΔC (Homo sapiens, UniProt Q07820); experiment: competitive FPA, MCL-1ΔNΔC; assay type: binding; details: even at 50-μM dosing
[3] = target: T1, BFL-1/A1ΔC (Homo sapiens, UniProt Q16548); experiment: competitive FPA, BFL-1/A1ΔC; assay type: binding; details: even at 50-μM dosing
T1 sequence (Q16548 1-153 limits assumed): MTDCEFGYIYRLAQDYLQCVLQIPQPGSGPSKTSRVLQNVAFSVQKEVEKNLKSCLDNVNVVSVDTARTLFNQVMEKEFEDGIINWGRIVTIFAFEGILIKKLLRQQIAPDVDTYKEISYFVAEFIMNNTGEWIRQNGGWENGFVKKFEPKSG

[4] = test system: BAKΔC; experiment: competitive FPA, BAKΔC; assay type: binding
[5] = test system: Bak^−/− MEFs; experiment: cell viability assay; assay type: cell-based, mouse; details: 24 h, CellTiter-Glo
[6] = test system: Bax^−/− MEFs; experiment: cell viability assay; assay type: cell-based, mouse; details: 24 h, CellTiter-Glo
[7] = test system: Bax^−/− Bak^−/− MEFs; experiment: cell viability assay; assay type: cell-based, mouse; details: 24 h, CellTiter-Glo
[8] = test system: Bak^−/− MEFs; experiment: mitochondrial cytochrome c release; assay type: cell-based, mouse; details: 15 h, supernatant and pellet western blot
[9] = test system: Bax^−/− and Bak^−/− MEFs; experiment: apoptotic response to standard proapoptotic stimuli; assay type: cell-based, mouse

Chain of MCL-1ΔNΔC (Q07820 172-327, stated change not applied): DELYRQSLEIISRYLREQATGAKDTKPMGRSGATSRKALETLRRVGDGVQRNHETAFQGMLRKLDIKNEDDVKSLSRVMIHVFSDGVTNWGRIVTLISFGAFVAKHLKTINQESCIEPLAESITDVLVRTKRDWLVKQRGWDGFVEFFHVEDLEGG
Chain of BCL-XLΔC (Q07817 1-212 limits assumed, stated change not applied): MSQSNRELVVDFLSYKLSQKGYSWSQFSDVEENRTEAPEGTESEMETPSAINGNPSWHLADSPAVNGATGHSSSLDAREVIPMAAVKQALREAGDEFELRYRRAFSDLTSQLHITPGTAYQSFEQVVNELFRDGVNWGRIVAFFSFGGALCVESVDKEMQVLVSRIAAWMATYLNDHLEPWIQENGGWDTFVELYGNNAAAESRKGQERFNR

competitive binding interaction with BCL-XLΔC [1]: little to no
competitive binding interaction with MCL-1ΔNΔC [2]: little to no
competitive binding interaction with BFL-1/A1ΔC [3]: little to no
competitive binding interaction with BAKΔC ([4]; even at 50-μM dosing): little to no
SMILES: CCOc1ccccc1NN=C1C(=O)N(c2nc(-c3ccccc3)cs2)N=C1C [BAM7, 4-(2-(2-ethoxyphenyl) hydrazono)-3-methyl-1-(4-phenylthiazol-2-yl)-1H-pyrazol-5(4H)-one]
viability of Bak−/− MEFs [5]: dose- and time-responsively impaired the viability
viability of Bax−/− MEFs [6]: no effect
viability of Bax−/− Bak−/− MEFs [7]: did not affect the viability
mitochondrial cytochrome c release [8]: dose-responsive mitochondrial cytochrome c release

SMILES: CC[C@H](C)[C@H](NC(C)=O)C(=O)N[C@@H](Cc1c[nH]c2ccccc12)C(=O)N[C@H](C(=O)N[C@@H](C)C(=O)N[C@@H](CCC(N)=O)C(=O)N[C@@H](CCC(=O)O)C(=O)N[C@@H](CC(C)C)C(=O)N[C@@H](CCCNC(=N)N)C(=O)N[C@@]1(C)CCCC=CCCC[C@@](C)(C(=O)N[C@@H](Cc2ccccc2)C(=O)N[C@@H](CC(N)=O)C(=O)N[C@@H](C)C(=O)N[C@@H](Cc2ccc(O)cc2)C(=O)N[C@@H](Cc2ccc(O)cc2)C(=O)N[C@@H](C)C(=O)N[C@@H](CCCNC(=N)N)C(=O)N[C@@H](CCCNC(=N)N)C(N)=O)NC(=O)[C@H](CC(=O)O)NC(=O)CNC(=O)[C@H]([C@@H](C)CC)NC1=O)[C@@H](C)CC [BIM SAHB, reference compound]
IC50 ([4]; read-out: IC50, competition with FITC–BIM SAHB for BAKΔC, competitive FPA): 827 nM

SMILES: COc1cc([C@@H]2c3cc4c(cc3[C@@H](O[C@@H]3O[C@@H]5CO[C@@H](C)O[C@H]5[C@H](O)[C@H]3O)[C@H]3COC(=O)[C@H]23)OCO4)cc(OC)c1O [etoposide]
apoptotic response in Bax−/− versus Bak−/− MEFs [9]: equivalent apoptotic response

SMILES: CN[C@@H]1C[C@H]2O[C@@](C)([C@@H]1OC)n1c3ccccc3c3c4c(c5c6ccccc6n2c5c31)C(=O)NC4 [staurosporine]
apoptotic response in Bax−/− versus Bak−/− MEFs [9]: equivalent apoptotic response
